Assay results: ChEMBL document CHEMBL1201862, “PubChem BioAssay data set” (2004)
Activity calls are given as the source filed them. Non-standard residues stand in square brackets, D forms with d. Residues, ends and D or L forms follow the SMILES beside them.

Key:
[1] = target: T1, Heat shock factor protein 1 (Mus musculus, UniProt P38532); test: inhibition of MG132-induced HSE-luciferase signal, confirmation, cell-based, NIH3T3, luminescence, dose retest (AID 2382); format: functional;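 note: NIH3T3 fibroblasts with HSF1-driven luciferase reporter stressed by proteasome inhibitor MG132; luminescence from HSF1-driven luciferase expression after 8 hours of MG132 stress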
T1 sequence (P38532 whole entry): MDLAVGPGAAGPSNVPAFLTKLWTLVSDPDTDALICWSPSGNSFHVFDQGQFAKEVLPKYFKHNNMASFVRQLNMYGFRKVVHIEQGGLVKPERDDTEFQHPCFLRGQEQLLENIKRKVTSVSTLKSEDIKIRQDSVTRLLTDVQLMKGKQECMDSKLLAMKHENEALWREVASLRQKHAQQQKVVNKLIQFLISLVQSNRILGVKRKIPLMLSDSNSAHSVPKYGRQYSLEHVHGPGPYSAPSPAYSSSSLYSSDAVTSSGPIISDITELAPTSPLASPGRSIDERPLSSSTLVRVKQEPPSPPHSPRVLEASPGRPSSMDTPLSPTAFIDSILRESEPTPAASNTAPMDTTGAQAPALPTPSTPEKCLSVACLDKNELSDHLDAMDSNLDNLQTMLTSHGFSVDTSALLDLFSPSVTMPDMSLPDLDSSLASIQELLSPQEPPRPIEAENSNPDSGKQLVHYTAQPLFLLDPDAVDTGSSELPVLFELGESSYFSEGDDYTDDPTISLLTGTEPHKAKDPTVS

HEK293 [2] = test: NOD1 signaling inhibitors, primary screen, cell-based, luminescence, uHTS (AID 1578); format: functional; settings: Homo sapiens
HEK293 [3] = test: cells; format: functional, cell-based; settings: Homo sapiens
[4] = Luminescence Cell-Based Dose Response HTS to Identify Inhibitors of 5'UTR Stem-Loop Driven Prion Protein mRNA Translation in H4 Neuroglioblastoma Cells. [Related pubchem assays: 1827 (Project Summary), 1813 (Primary HTS)]; format: functional
[5] = inhibitors of SNCA 5'UTR-driven reporter translation, confirmation, H4 neuroglioma cells, luminescence (AID 1988); format: functional, cell-based
[6] = inhibitors of firefly luciferase expression or activity, dose response, H4 neuroglioma cells, luminescence (AID 1990); format: functional, cell-based
HEK293 [7] = test: NOD2 signaling inhibitors in MDP-stimulated cells, cell-based, uHTS, luminescence (AID 2001); format: functional; settings: Homo sapiens
Jurkat = test: antigen receptor-induced NF-kB inhibitors, dose response, Jurkat, luciferase reporter, luminescence, B- and T-cell (AID 489004); format: functional, cell-based; settings: Homo sapiens;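 note: NF-kB luciferase reporter Jurkat cells stimulated with PMA plus ionomycin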
Tumor necrosis factor = Tumor necrosis factor (Homo sapiens, UniProt P01375); test: TNFa-triggered NF-kB activation inhibitors, SAR follow-up, cell-based, revised (AID 2337); format: functional
Sequence of Tumor necrosis factor (P01375 whole entry): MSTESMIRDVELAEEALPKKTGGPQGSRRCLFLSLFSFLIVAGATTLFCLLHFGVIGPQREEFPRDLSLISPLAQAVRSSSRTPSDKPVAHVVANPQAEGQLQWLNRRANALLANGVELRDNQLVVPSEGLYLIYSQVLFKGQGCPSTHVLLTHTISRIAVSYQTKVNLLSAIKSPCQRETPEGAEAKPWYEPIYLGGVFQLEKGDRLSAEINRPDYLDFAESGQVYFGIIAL

[8] = cytotoxicity in HEK-293T NF-kB-Luc cells, dose response, cytotoxicity control for B/T-cell NF-kB inhibitor project, cell-based, uHTS hits (AID 489019); format: functional;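 note: IC50 reflects cytotoxicity as loss of cell viability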
[9] = HepG2 cell cytotoxicity, dose response, cytotoxicity control for Shn3 inhibitor project, CellTiter-Glo, cherry-picked (AID 624134); format: functional, cell-based
[10] = Shn3 3'UTR reporter inhibitors, dose response, cell-based, Clone20 osteoblasts, firefly luciferase, cherry-picked (AID 624132); format: functional;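 note: firefly luciferase luminescence from reporter carrying the Shn3 3'UTR in osteoblasts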
[11] = control 3'UTR Renilla luciferase suppression, dose response, counter-screen for Shn3 inhibitor project, cell-based, Clone20-Shn3RL, cherry-picked (AID 624133); format: functional
HEK293 [12] = test: cells; settings: Homo sapiens
[13] = target: T2, Nucleotide-binding oligomerization domain-containing protein 1 (Homo sapiens, UniProt Q9Y239); test: NOD1 signaling inhibitors, SAR follow-up, revised (AID 2333); format: functional
T2 sequence (Q9Y239 whole entry): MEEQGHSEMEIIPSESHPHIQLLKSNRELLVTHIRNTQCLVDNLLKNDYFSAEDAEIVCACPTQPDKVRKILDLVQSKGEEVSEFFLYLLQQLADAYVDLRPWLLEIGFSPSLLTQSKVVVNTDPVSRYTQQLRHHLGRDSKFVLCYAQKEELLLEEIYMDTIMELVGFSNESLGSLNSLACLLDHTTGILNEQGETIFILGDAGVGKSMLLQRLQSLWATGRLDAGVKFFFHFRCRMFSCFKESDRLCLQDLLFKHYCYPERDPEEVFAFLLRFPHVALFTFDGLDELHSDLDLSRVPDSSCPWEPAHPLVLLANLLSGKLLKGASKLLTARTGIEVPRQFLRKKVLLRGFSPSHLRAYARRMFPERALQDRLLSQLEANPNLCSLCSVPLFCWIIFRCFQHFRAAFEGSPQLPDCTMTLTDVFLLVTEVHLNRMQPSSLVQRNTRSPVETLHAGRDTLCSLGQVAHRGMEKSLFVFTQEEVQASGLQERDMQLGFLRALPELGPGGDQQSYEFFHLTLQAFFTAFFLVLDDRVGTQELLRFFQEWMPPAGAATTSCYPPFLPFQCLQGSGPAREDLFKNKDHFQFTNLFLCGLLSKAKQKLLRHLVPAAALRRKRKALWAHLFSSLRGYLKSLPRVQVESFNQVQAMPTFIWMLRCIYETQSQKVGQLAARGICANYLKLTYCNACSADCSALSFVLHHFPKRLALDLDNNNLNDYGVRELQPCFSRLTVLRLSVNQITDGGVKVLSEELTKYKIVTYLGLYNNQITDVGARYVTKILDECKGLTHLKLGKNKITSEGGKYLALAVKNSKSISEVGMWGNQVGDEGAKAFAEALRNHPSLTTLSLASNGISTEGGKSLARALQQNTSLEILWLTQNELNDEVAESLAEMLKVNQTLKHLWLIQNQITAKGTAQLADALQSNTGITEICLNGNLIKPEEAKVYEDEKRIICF

HEK293 [14] = test: cells; format: functional, cell-based; settings: Homo sapiens; remark: listed apart in the source
Beta-galactosidase = Beta-galactosidase (Escherichia coli, UniProt Q8VNN2); test: PubChem AID 485352; format: functional
Sequence of Beta-galactosidase (Q8VNN2 whole entry): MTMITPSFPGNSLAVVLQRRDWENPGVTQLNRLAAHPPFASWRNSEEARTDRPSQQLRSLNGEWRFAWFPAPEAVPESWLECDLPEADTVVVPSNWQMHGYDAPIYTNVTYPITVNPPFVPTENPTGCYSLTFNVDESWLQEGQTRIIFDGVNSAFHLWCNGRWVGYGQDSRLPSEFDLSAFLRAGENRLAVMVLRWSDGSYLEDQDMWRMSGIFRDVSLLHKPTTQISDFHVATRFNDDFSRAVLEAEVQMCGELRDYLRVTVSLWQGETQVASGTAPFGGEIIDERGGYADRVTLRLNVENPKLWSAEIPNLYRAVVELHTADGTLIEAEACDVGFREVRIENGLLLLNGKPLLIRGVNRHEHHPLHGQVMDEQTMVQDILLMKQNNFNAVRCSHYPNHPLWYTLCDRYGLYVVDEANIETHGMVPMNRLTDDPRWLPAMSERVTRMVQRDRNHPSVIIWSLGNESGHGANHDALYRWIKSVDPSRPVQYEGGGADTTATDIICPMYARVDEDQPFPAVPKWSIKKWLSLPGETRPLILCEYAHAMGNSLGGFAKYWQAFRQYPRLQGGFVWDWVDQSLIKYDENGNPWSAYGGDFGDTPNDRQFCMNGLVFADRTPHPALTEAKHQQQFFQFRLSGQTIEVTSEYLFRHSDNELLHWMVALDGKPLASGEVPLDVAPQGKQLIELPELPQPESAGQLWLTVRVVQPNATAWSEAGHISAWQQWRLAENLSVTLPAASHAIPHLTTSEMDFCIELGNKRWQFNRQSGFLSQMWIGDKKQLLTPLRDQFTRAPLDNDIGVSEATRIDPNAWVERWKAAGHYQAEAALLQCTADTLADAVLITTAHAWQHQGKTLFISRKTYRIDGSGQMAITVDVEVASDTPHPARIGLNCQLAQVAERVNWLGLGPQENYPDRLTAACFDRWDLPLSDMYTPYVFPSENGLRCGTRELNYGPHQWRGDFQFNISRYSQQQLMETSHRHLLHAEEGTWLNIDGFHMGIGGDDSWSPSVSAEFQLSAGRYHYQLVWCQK

[15] = target: T3, Type-1 angiotensin II receptor (Homo sapiens, UniProt P30556); test: AT1 receptor antagonists, dose response, selectivity assay for APJ receptor antagonist project, cell-based, uHTS hits (AID 463214); format: functional;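 note: antagonist potency against angiotensin II stimulated AT1 response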
T3 sequence (P30556 whole entry): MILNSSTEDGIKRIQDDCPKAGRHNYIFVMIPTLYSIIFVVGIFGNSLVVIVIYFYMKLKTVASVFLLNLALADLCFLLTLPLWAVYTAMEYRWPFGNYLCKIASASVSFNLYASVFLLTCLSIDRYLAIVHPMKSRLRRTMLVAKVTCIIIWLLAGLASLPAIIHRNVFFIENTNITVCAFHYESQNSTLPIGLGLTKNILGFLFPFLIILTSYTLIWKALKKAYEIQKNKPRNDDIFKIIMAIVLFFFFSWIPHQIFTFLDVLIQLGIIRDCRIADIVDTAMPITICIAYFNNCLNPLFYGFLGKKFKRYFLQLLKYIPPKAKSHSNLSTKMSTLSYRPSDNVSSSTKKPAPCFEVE

[16] = target: Dual specificity protein phosphatase 3 (Homo sapiens, UniProt P51452); test: VHR phosphatase inhibition, dose response, selectivity assay for STEP inhibitor project, biochemical (AID 602374); format: functional; settings: read-out: IC50_Mean
Sequence of Dual specificity protein phosphatase 3 (P51452 whole entry): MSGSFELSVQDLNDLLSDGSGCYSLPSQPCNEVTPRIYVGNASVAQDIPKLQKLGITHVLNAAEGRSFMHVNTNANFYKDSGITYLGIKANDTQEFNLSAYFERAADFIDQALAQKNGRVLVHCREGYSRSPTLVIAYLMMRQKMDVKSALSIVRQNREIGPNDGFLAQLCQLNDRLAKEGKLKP

[17] = target: T4, Tyrosine-protein phosphatase non-receptor type 11 (Homo sapiens, UniProt Q06124); test: SHP2 phosphatase inhibition, dose response, selectivity assay for STEP inhibitor project, biochemical (AID 602367); format: functional; settings: read-out: IC50_Mean
T4 sequence (Q06124 whole entry): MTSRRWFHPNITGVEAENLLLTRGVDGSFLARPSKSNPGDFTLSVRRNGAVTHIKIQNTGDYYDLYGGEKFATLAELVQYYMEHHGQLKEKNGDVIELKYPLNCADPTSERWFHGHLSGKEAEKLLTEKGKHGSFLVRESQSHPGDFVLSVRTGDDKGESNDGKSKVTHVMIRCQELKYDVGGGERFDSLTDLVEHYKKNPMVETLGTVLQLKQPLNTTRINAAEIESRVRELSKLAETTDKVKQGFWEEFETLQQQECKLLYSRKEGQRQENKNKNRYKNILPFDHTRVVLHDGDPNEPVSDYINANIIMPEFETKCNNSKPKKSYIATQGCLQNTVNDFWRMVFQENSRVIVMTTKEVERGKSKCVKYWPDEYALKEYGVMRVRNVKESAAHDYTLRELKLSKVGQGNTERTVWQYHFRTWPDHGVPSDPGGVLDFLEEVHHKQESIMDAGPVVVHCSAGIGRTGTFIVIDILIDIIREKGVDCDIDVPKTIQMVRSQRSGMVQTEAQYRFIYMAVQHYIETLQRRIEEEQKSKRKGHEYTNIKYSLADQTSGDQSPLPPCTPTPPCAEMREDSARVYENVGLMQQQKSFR

[18] = target: T5, Tyrosine-protein phosphatase non-receptor type 5 (Homo sapiens, UniProt P54829); test: STEP phosphatase inhibitors, confirmation, biochemical, fluorescence intensity, uHTS hits (AID 602372); format: functional; settings: read-out: IC50_Mean
T5 sequence (P54829 whole entry): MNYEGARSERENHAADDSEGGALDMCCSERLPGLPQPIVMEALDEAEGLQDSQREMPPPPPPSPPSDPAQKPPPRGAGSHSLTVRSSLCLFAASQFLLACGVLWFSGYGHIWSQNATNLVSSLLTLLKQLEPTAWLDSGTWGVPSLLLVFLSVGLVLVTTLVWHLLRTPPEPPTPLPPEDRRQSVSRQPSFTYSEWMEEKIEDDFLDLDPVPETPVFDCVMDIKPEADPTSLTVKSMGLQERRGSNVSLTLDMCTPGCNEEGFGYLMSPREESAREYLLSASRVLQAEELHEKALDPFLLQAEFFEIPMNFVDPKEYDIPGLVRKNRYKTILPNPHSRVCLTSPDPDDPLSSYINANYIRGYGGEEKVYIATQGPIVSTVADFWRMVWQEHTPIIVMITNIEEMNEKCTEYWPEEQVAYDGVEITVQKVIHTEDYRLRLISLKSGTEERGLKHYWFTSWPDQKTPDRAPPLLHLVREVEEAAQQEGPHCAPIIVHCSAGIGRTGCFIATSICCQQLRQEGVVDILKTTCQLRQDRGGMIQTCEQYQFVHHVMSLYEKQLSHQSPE

INS1 = test: beta cell apoptosis inhibitors, cytokine rescue, dose response, luminescence, retest (AID 449756); format: functional, cell-based; settings: Rattus norvegicus;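 note: cell death triggered by IL-1 beta plus TNF-alpha plus IFN-gamma mixture; protective hits raise ATP signal compared with cytokine alone wells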
[19] = target: Glucose-6-phosphate 1-dehydrogenase (Homo sapiens, UniProt P11413); test: human G6PD enzyme inhibitors, dose response, selectivity assay for P. falciparum G6PD inhibitor project, biochemical, fluorescence (AID 504792); format: functional
Sequence of Glucose-6-phosphate 1-dehydrogenase (P11413 whole entry): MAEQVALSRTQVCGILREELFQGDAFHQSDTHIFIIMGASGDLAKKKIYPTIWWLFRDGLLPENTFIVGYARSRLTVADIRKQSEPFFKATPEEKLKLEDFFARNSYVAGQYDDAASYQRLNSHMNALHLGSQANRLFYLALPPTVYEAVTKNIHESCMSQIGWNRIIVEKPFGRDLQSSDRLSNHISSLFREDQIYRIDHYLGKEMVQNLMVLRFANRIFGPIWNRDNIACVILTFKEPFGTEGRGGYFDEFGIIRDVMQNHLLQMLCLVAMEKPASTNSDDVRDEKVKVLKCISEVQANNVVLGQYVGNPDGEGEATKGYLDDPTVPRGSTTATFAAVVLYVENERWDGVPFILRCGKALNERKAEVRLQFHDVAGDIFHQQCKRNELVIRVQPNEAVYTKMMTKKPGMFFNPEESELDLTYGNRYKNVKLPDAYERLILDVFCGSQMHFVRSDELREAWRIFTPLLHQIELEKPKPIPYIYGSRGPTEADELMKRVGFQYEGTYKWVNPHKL

P388/ADR = test: cells; format: functional; settings: Mus musculus
SN12K1 = test: cells; format: functional; settings: Homo sapiens
P388 = test: cells; format: functional; settings: Mus musculus

With `CC(Nc1ncnc2sccc12)c1ccccc1` (centres undefined) the EC50 [1] was > 195 µM (not active), the EC50 (HEK293 [2]) was 1.36 µM (active) and the IC50 (HEK293 [3]) was 2.67 µM (active). The EC50 [4] was > 120 µM (not active), the EC50 [5] was > 120 µM (not active) and the EC50 [6] was > 120 µM (not active). For the same compound, the IC50 (HEK293 [7]) was 3.62 µM (active), the IC50 (Jurkat) was > 80 µM (inactive) and the IC50 (Tumor necrosis factor) was 2.35 µM (active). The IC50 [8] was > 80 µM (inactive), the AC50 [9] was 1.71 µM (active) and the AC50 [10] was 0.505 µM (active). The AC50 [11] was 0.606 µM (active), the IC50 (HEK293 [12]) was > 20 µM (inactive) and the IC50 [13] was 1.55 µM (active). The IC50 (HEK293 [14]) was 13.5 µM (active).
With `Cc1ccc(NNC(=O)c2c(C)noc2C)cc1Cl` the EC50 (Beta-galactosidase) was > 40 µM (inactive) and the IC50 [15] was 5.22 µM (active).
For `CCCCN(CC)Cc1ccc(CN=C(S)Nc2c(C)cc(C)cc2C)o1`, the IC50 [16] was 2.45 µM (active), the IC50 [17] was 4.52 µM (active) and the IC50 [18] was 45.9 µM (inactive).
With `Cc1ccc(C(=O)COC(=O)c2ccncc2)cc1[N+](=O)[O-]` the EC50 (Beta-galactosidase) was > 40 µM (inactive) and the IC50 [15] was 20 µM (active).
For `NNc1nc(-c2ccccc2)cc(-c2ccccc2O)n1`, the AC50 (INS1) was 1.7 µM (active), the EC50 (Beta-galactosidase) was > 40 µM (inactive) and the IC50 [15] was 4.2 µM (active).
With `CN1CCN(C(=S)c2ccc(Br)cc2)CC1` the IC50 [16] was 1.14 µM (active), the IC50 [19] was > 80 µM (inactive) and the IC50 [17] was 1.51 µM (active). The IC50 [18] was 30.8 µM (inactive).
In the case of `Cc1cc(C)nc(NNS(=O)(=O)c2ccc(Cl)cc2)n1`, the EC50 (Beta-galactosidase) is reported as > 40 µM (inactive) and the IC50 [15] is reported as > 40 µM (not active).
With `CN(C)CCNc1c2ccccc2c2c3c(cccc13)C(=O)N(CCN(C)C)C2=O` the GI50 (P388/ADR) was 0.218 µM (active), the GI50 (SN12K1) was 0.31 µM (active) and the GI50 (P388) was 0.0723 µM (active).
With `CC1NC(=O)CC(c2ccccc2)N(N=O)C1c1ccccc1` (centres undefined) the GI50 (P388/ADR) was 15.3 µM (inactive), the GI50 (SN12K1) was 21.6 µM (inactive) and the GI50 (P388) was 10.3 µM (inactive).
For `CCCCCCCCCCCC[C@@H](O)[C@H]1CC[C@H]([C@H](O)CCCC[C@H](O)CCCCC[C@@H](O)CC2=C[C@H](C)OC2=O)O1`, the GI50 (P388/ADR) was 0.106 µM (active), the GI50 (SN12K1) was < 0.01 µM (active) and the GI50 (P388) was < 0.0366 µM (active).
With `CC(C)C[C@H](NC(=O)[C@H](CC(C)C)NC(=O)[C@@H](Cc1c[nH]c2ccccc12)NC(=O)[C@H](Cc1ccccc1)NC(=O)[C@@H](Cc1c[nH]c2ccccc12)NC(=O)[C@H](CCC(N)=O)NC(=O)[C@H](CCC(N)=O)NC(=O)[C@H]1CCCN1C(=O)[C@@H](N)CCCCN)C(N)=O` (H-K[dP]QQ[dW]F[dW]LL-NH2) the GI50 (P388/ADR) was > 100 µM (inactive), the GI50 (SN12K1) was > 100 µM (inactive) and the GI50 (P388) was > 100 µM (inactive).
